From ChEMBL document CHEMBL6103547, “Comprehensive exploration of isocitrate dehydrogenase (IDH) mutations: Tumorigenesis, drug discovery, and covalent inhibitor advances” (Eur J Med Chem, 2025)

Experiments:
[1] = Inhibition of IDH2 R172S mutant (unknown origin); parameters: species or system Homo sapiens
[2] = Downregulation of HoxA9 expression in human AML3 cells; format: functional, cell-based
[3] = biological target: Isocitrate dehydrogenase [NADP], mitochondrial (Homo sapiens, UniProt P48735, R172K); assay: Inhibition of FLAG-tagged IDH2 R172K mutant (unknown origin) extracted from baculovirus infected Sf9 cells
U-87 MG = assay: Antiproliferative activity against human U87; format: functional, cell-based, U-87MG ATCC
TF-1 = assay: Antiproliferative activity against human TF-1 cells; format: functional, cell-based
[4] = biological target: Isocitrate dehydrogenase [NADP], mitochondrial (Homo sapiens, UniProt P48735, R140Q); assay: Inhibition of FLAG-tagged IDH2 R140Q mutant (unknown origin) extracted from baculovirus infected Sf9 cells
HCT-116 = assay: Antiproliferative activity against human HCT-116 cells; format: functional, cell-based

Sequence of Isocitrate dehydrogenase [NADP], mitochondrial (Homo sapiens, UniProt P48735, R140Q) (P48735 40-452 R140Q limits assumed): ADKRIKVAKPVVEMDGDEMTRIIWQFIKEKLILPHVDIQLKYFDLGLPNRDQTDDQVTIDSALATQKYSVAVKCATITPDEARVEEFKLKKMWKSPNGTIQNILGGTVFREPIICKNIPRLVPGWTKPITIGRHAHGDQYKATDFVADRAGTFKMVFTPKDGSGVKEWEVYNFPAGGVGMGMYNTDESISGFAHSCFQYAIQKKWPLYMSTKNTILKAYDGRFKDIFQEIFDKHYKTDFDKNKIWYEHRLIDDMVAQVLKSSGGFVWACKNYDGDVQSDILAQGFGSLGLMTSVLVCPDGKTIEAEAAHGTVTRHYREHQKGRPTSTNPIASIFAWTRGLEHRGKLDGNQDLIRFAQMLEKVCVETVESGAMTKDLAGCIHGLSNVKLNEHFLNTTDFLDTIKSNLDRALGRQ
Sequence of Isocitrate dehydrogenase [NADP], mitochondrial (Homo sapiens, UniProt P48735, R172K) (P48735 40-452 R172K limits assumed): as the sequence (P48735 40-452 R140Q limits assumed) above, with Q101R, R133K counted along it

C[C@H](O)c1cccc(NC(=O)c2nn(Cc3ccc(F)cc3)c3c2CN(C(=O)c2ccc[nH]2)C[C@H]3C)c1
IC50 [1]: 1030 nM

C[C@H]1C[C@@H](n2c(Nc3ccc(OC(F)(F)F)cc3)nc3cc(CCC(=O)O)ccc32)CC(C)(C)C1 [BAY1436032]
IC50 [2]: 60 nM

CC(C)(O)CNc1nc(Nc2ccnc(C(F)(F)F)c2)nc(-c2cccc(C(F)(F)F)n2)n1 [ENASIDENIB]
IC50 [3]: 200 nM
IC50 (U-87 MG): 10 nM
IC50 (TF-1): 20 nM
IC50 [4]: 320 nM
IC50 (HCT-116): 530 nM
